Results reported in patent publication US6482805B2 (Parker Hughes Institute, priority 1998, dated 2002).
Where two headings read alike, the source gives them in different places.

Assays:
Assay type in all cases: cell-based
human sperm = test: cells
Protocol: All donor specimens were obtained after informed consent and in compliance with the guidelines of the Hughes Institute Institutional Review Board. To evaluate the spermicidal effects of ZDV derivatives, highly motile fraction of pooled donor sperm (n 8) were prepared from liquefied normospermic semen by discontinuous (90-45%) gradient centrifugation using Enhance-S-Plus (Conception technologies, San Diego, Calif.) cell isolation medium as previously described. [D'Cruz O J, et al., Biol Reprod 1999; 60:1419-1428; D'Cruz O J, et al., Biol Reprod 1995; 53:118-1130; and D'Cruz O J, et al., Biol Reprod 1998; 58:1515-1526]. The resulting pellet was washed twice and resuspended in 1-ml of Biggers, Whitten, and Whittingam's medium (BWW) (Irvine Scientific, Santa Ana, Calif.) containing 3% BSA (fraction V; Sigma Chemical Co., St. Louis, Mo.). One-ml aliquots of the sperm suspension were centrifuged (500× g, 5 min) and incubated at 45° for 90 min at 37° C. in 5% CO2 atmosphere. The supernatant containing primarily motile sperm was aspirated carefully, washed once in BWW medium containing 25 mM HEPES and 0.3% BSA and resuspended in the same medium. Pooled motile sperm (=10×10^6/ml) prepared from 3-5 donors were suspended in 1-ml of BWW-0.3% BSA in the presence and absence of serial 2-fold dilutions of test substance (1.9 μm to 500 μM) in 0.5% dimethyl sulfoxide (DMSO). The stock solutions of synthetic compounds were prepared in DMSO (100 mM) and diluted in medium to yield the desired concentrations. A corresponding volume of DMSO (0.5%) was added to control tubes. After 3 hour incubation at 37° C., the percentage of motile sperm was evaluated by computer-assisted sperm motion analysis (CASA) [D'Cruz O J, et al., Biol Reprod 1998; 58:1515-1526; D'Cruz O J, et al., Mol Hum Reprod 1998; 4:683-693; D'Cruz O J, et al., Biol Reprod 1999; 60:435-444]. The percentage motilities were compared with those of sham-treated control suspensions of motile sperm. The spermicidal activity of test compounds was expressed as the mean EC50 values (the final concentration of the compound in the medium that decreases the proportion of motile sperm by 50%) calculated from three independent experiments.
For CASA, 4 μl of each sperm suspension were loaded into a 20-μm Microcell chamber at 37° C. Eight to ten fields per chamber were scanned for analysis using a Hamilton Thome Integrated Visual Optical System (IVOS), version 10 instrument (Hamilton Thome Research Inc., Danvers, Mass.) [see, D'Cruz O J, et al. Biol Reprod 1998; 58:1515-1526; and D'Cruz O J, et al., Mol Hum Reprod 1998; 4:683-693; and D'Cruz O J, et al., Biol Reprod 1999; 60:435-444]. Each field was recorded for 30 sec. The computer calibrations were set at 30 frames at a frame rate of 30/s. Other settings were as follows: minimum contrast 8; minimum size 6; low-size gate, 1.0; high-size gate, 2.9; low-intensity gate, 0.6; high-intensity gate, 1.4; phase-contrast illumination; low path velocity at 10 μm/s, and threshold straightness at 80%; magnification factor, 1.95.
The sperm kinematic parameters that were determined included numbers of motile (MOT) and progressively (PRG) motile sperm; curvilinear velocity (VCL; a measure of the total distance traveled by a given sperm during the acquisition divided by the time elapsed); average path velocity (VAP; the spatially averaged path that eliminates the wobble of the sperm head), straight line velocity (VSL; the straight-line distance from beginning to end of track divided by time taken), beat cross frequency (BCF, frequency of sperm head crossing sperm average path), the amplitude of lateral head displacement (ALH; the mean width of sperm head oscillation), straightness (STR=VSL/VAP×100); linearity (LIN=VSL/VCL×100; departure of sperm track from a straight line). Data from each individual cell track were recorded and analyzed. At least 200 motile sperm were analyzed for each aliquot sampled.

[1] = tested on: human sperm binding and penetration of zona-free hamster eggs; test: Zona-free hamster egg penetration assay (Example 6); conditions: 25 μM or 100 μM, 3 hours preincubation; P<0.001
Protocol: The heterologous zona-free hamster egg penetration assay appears to correlate with the in vivo fertilizing capacity of human sperm as well as the ability of human sperm to fertilize intact human eggs in vitro.
15, 471 (1976)]. Motile fractions of sperm (n=4) obtained by 90-45% Percoll gradient centrifugation and wash were resuspended in BWW-3.5% BSA medium (pH 7.4) and divided into aliquots of 20×10^6 sperm/ml and allowed to capacitate for 24 hours. […] After exposure to drugs, the control and WHI-treated sperm suspensions were washed in BWW-3.5% BSA medium. Sperm motility following capacitation and washing in BWW-3.5% BSA medium was assessed by CASA.
Frozen hamster eggs (Charles River Laboratories, Wilmington, Mass.) were thawed and transferred to 35 mm glass bottom microwells (Mat Tek Corporation, Ashland, Mass.) in BWW medium. To remove zona, the washed eggs were treated with 0.05% trypsin (Irvine Scientific) in BWW medium for 20 min and then transferred to BWW-3.5% BSA medium and washed three times. Fifteen to 45 zona-free eggs per test were transferred in 100 μl of BWW-3.5% BSA medium under mineral oil. […] The number of sperm bound per egg, the number of swollen sperm heads per egg, and the percentage of penetrated eggs were determined for control and test sperm. […]

[2] = tested on: human sperm in donor semen; test: Sperm immobilizing activity in diluted semen / seminal plasma (Example 3); conditions: 200 μM, 3 hours, CASA
Protocol: Following 3 hours of incubation, duplicate aliquots (4-μl) were used for CASA.

[3] = 3 hour incubation, mean ± SD of three experiments, read-out: EC50 (sperm motility, CASA) (converted)
[4] = Table 4, mean of three experiments, read-out: Sperm EC50

| Compound | EC50 (human sperm; [3]) | EC50 (human sperm; [4]) | sperm binding to zona-free eggs [1] | sperm motility after direct addition to semen diluted in PBS [2] | EC50 (human sperm; Homo sapiens, Sperm, Table 4, mean of three experiments, read-out: Sperm EC50) | EC50 (human sperm; Homo sapiens, Sperm, 3 h, read-out: EC50 (sperm motility, CASA)) | EC50 (human sperm; Homo sapiens, Sperm, read-out: Sperm EC50) |
| --- | --- | --- | --- | --- | --- | --- | --- |
| 5-Bromo-6-methoxy-5,6-dihydro-3′-azidothymidine 5′-[Phenyl methoxyalaninyl phosphate] [WHI-04] | 35 ± 5 µM | 35 µM | – | – | – | – | – |
| 5-Bromo-6-methoxy-5,6-dihydro-3′-azidothymidine-5′-[(p-Fluorophenyl methoxyalaninyl phosphate] [WHI-06] | 15 µM | 15 µM | – | – | – | – | – |
| 5-bromo-6-methoxy-5,6-dihydro-3 ′-azidothymidine-5 ′-(p-methoxyphenyl) methoxyalaninyl phosphate [WHI-05] | 24 µM | 24 µM | significant inhibition | complete loss of motility | – | – | – |
| CCCCCCCCCc1ccc(OCCOCCOCCOCCOCCOCCOCCOCCOCCO)cc1 [Compound N-9, nonoxynol-9, reference compound] | – | – | – | – | 81 µM | – | – |
| COC(=O)C(C)NP(=O)(OCC1OC(N2C(=O)NC(=O)C(C)(Br)C2OC)CC1N=[N+]=[N-])Oc1ccc(Br)cc1 (stereo not shown) [WHI-07, 5-Bromo-6-methoxy-5,6-dihydro-3′-azidothymidine-5′-(p-Bromophenyl Methoxyalaninyl Phosphate)] | – | – | significant inhibition | complete loss of motility | – | 5 µM | 5 µM |
